Data set [1] in a line: Stability of peptides against guanidine hydrochloride (helicity). The class given is physicochemical.
Data set [2] can be described thus: Circular dichroism, temperature-dependent spectra and thermal unfolding curves. Format: physicochemical. The method, then:
Peptides were dissolved in water to described concentrations, and the concentrations were determined by absorbance spectroscopy (extinction coefficient for tryptophan, ε280=5690 cm^-1). Circular dichroism spectra were collected on a Jasco J-710 spectropolarimeter equipped with a temperature controller using the following standard measurement parameters: 0.5 nm step resolution, 20 nm/sec speed, 10 accumulations, 1 sec response, 1 nm bandwidth, 0.1 cm path length. All spectra were converted to a uniform scale of molar ellipticity after background subtraction. Temperature-dependent CD spectra of each peptide (94-100 μM) were recorded at varying temperatures (4° C. and every 10° C. from 10° C. to 90° C.) from 260 to 185 nm. CD measurements with varying concentrations (18, 48, 70, and 118 μM) of peptide 4 were performed at 20° C. To generate thermal unfolding curves, the ellipticity at 222 nm for each peptide (94-100 μM) was measured every 1° C. from 4 to 95° C. with temperature slope of 3° C./min. To obtain Tm, we analyzed the thermal unfolding curves using a two-state model as previously described with 95% confidence interval (see […]. Biophysic. J. 2003, 85, 1457-1465). […] However, peptide 4 retained more than 50% of their alpha-helicity even at 95° C.

In data set [3] the target is T1, trypsin (Bos taurus, UniProt P00760).
T1 construct: purchased Pierce 20230
T1 sequence (P00760 24-246): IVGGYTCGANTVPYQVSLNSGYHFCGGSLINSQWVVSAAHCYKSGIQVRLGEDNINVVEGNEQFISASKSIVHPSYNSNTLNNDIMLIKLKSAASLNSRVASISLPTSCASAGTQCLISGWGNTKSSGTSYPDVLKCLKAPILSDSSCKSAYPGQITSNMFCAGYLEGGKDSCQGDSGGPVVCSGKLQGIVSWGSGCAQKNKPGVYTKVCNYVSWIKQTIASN
The class given is in vitro ADME. Particulars: for slope of ln[S] versus time (first order kinetics of trypsin digestion): 0.1 M NH4HCO3 buffer pH 8.0, room temperature. The protocol: 0.4 mL of trypsin immobilized on agarose (Pierce, catalog #20230) was washed with 0.8 mL of a digestion buffer (0.1 M NH4HCO3 buffer, pH 8.0). The gel was separated from the buffer after each wash by centrifugation. The washed enzyme was suspended in 1.6 mL of the digestion buffer. 350 μL of a peptide solution (24 μM) in the digestion buffer was mixed with 150 μL of the enzyme suspension and the resulting mixture was incubated with rapid shaking at room temperature for 10, 30, 90, 135, 180 minutes. The incubation was quenched by filtering off the enzyme, and the residual substrate in the filtrate was quantified by HPLC-based peak detection at 280 nm.

For data set [4], the system named is chymotrypsin. Description: Stability of peptides against chymotrypsin. As to conditions: compared with stapled peptide 5. Format: in vitro ADME.

Bridge positions count the residues as written; N and C are the ends. Square brackets hold non-standard residues; d marks the D form. S8 = C=CCCCCCC[C@](C)(N)C(=O)O; R5 = C=CCCC[C@@](C)(N)C(=O)O; S5 = C=CCCC[C@](C)(N)C(=O)O; Aib = CC(C)(N)C(=O)O

Consider `CC(=O)N[C@@H](CCC(=O)O)C(=O)N[C@@H](Cc1c[nH]c2ccccc12)C(=O)N[C@@H](C)C(=O)N[C@@]1(C)CCC/C=C\CCC[C@]2(CCC/C=C/CCCCCC[C@@](C)(C(N)=O)NC(=O)[C@H](Cc3c[nH]cn3)NC(=O)[C@H](C)NC(=O)[C@H](C)NC(=O)[C@H](CC(C)C)NC(=O)[C@H](Cc3ccccc3)NC(=O)[C@H](CCCCN)NC2=O)NC(=O)[C@H](C)NC(=O)[C@H](C)NC(=O)[C@H]([C@@H](C)O)NC1=O` [Peptide 4], for which the “stability against the denaturing agent guanidine hydrochloride (in words)” value in data set [1] is on record as “remains fully helical even at extremely high concentrations of guanidine salt”. Besides, the “helical character by CD (in words)” value in data set [2] is on record as “displayed the characteristic CD signature of alpha-helices”. Moreover, in data set [2] (4 to 95° C.), the “cooperative melting transition point (in words)” value is recorded as “did not have a cooperative melting transition point”. In addition, in data set [2] (at 95° C.), the alpha-helicity retained entry is on record as “more than 50%”. Moreover, the “thermal stability of the helix by CD (in words)” value in data set [2] (increasing temperature) was “less affected by increasing temperature than single-stapled peptides 5 and 6”. Besides, the “slope of ln[S] versus time (first order kinetics of trypsin digestion)” value in data set [3] is listed as 4.04±0.16×10^−5 min^−1. In addition, the half-life in data set [3] (pH 8) worked out at 2.87 h. Besides, in data set [4], the “stability against chymotrypsin (in words)” value is reported as “higher level of stability”.
“Peptide 5: single-stapled peptide, RCM product of Table 5 entry IX (SEQ ID 9) (Ac-EWA[Aib]TAA[R5]KFLAAH[S8]-NH2; staple 8-15 (inferred))”: the “cooperative melting transition (Tm)” value in data set [2] (CD ellipticity at 222 nm, 4 to 95° C., peptide 94-100 μM in water, two-state model) stood at 57 °C. Besides, in data set [3], the “slope of ln[S] versus time (first order kinetics of trypsin digestion)” value is listed as 7.11±0.66×10^−5 min^−1.
With “Peptide 8: i+4+4 stitched peptide, double RCM product of Table 5 entry XI (SEQ ID 11) (Ac-EWA[S5]TAA[2‑amino‑2‑(pent-4-enyl)hept‑6‑enoic acid]KFL[R5]AHA-NH2; staple 8-12, 4-8)”, the “helical character by CD (in words)” value in data set [2] was “helical character greater than the stapled peptide 5 and less than that of the i+4+7 stitched peptide 4”. Moreover, the “cooperative melting transition point (in words)” value in data set [2] (4 to 95° C.) is on record as “did not have a cooperative melting transition point”.

The values are drawn from patent US10301351B2, “Stitched polypeptides” (President and Fellows of Harvard College, priority 2007, dated 2019).
